Earlier results in patent publication US4606909A, “Pharmaceutical multiple-units formulation” (priority 1981, dated 1986).

Conditions: ambient temperature
In the case of `CCCCNC(=O)NS(=O)(=O)c1ccc(C)cc1` [tolbutamide], the “parts by volume of water required to dissolve 1 part by weight of the substance” value (from here on “parts by volume of water required”) is listed as “more than 1000 parts by volume of water”.
For `C[C@]12CC[C@H]3[C@@H](CCC4=CC(=O)CC[C@@]43C)[C@@H]1CC[C@@H]2O` [testosterone], the “parts by volume of water required” value is listed as “more than 1000 parts by volume of water”.
For `CC(=O)S[C@@H]1CC2=CC(=O)CC[C@]2(C)[C@H]2CC[C@@]3(C)[C@@H](CC[C@@]34CCC(=O)O4)[C@H]12` [spironolactone], the “parts by volume of water required” value is listed as “more than 1000 parts by volume of water”.
